Here are results for ten molecules from US7396666B2, “Glycosyltransferase, nucleic acid encoding the glycosyltransferase and method of testing canceration using the nucleic acid” (National Institute of Advanced Industrial Science and …, priority 2002, dated 2008).

Holding throughout (format): biochemical
The target in assay [1] is T1, G9 polypeptide (Homo sapiens, UniProt Q7Z7M8).
T1 construct: made in house
T1 sequence (Q7Z7M8 26-397): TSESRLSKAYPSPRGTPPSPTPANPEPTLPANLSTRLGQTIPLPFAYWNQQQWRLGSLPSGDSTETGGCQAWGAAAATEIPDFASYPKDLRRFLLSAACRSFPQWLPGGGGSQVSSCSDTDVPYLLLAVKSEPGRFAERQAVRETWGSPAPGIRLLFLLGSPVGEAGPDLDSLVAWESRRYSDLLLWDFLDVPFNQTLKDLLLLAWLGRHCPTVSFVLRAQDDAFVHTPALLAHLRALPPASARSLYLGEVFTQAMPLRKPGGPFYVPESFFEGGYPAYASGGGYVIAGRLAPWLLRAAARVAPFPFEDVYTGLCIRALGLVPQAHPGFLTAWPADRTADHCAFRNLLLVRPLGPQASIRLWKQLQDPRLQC
The assay can be described thus: Divalent metal ion requirement of G9 enzyme activity.

Assay [2] has as its target T1, G9 polypeptide. The assay can be described thus: β1,3-N-acetylglucosaminyltransferase activity with synthetic mono-/oligosaccharide acceptor substrates ([14C]UDP-GlcNAc donor, scintillation counting). The following applies: for transferring activity for acceptor substrate (in words): GlcNAc transfer by G9 to synthetic acceptor substrates; for Relative activity: Substrate specificity of G9, 10 μM acceptor substrate, UDP-GlcNAc donor, 37° C., usually 16 hours, ND = not detected. Here is the method:
The FLAG peptide-fused G9 polypeptide obtained in the example above was measured for a β1,3-N-acetylglucosaminyltransferase activity with monosaccharaide/oligosaccharide/glycolipid/glycoprotein as substrates according to known methods (e.g., the above-described references and FEBS, 462, 289 (1999), J. Biol. Chem. 269, 14730-14737 (1994), J. Biol. Chem., 267, 23507 (1992), and J. Biol. Chem., 267, 2994 (1992)).
pNp-α-Glc, pNp-β-Glc, pNp-α-GlcNAc, pNp-β-GlcNAc, pNp-α-Gal, oNp-β-Gal, pNp-α-GalNAc, pNp-α-Xyl, oNp-β-Xyl, pNp-α-Fuc, Bz-α-Man, Bz-α-ManNAc, core1-α-pNp, core3-α-pNp, Bz-β-lactoside, GlcNAcβ1-4GlcNAcβ-Bz, and Galβ1-4GlcNAcα-pNp were used as acceptor substrates (see Table 5). These substrates can be purchased from, for example, Sigma Corp. or Toronto Research Chemicals Inc.
A basic reaction solution in the case of using a radiolabeled substrate as the donor substrate comprises 20 μl in total of 14 mM HEPES buffer (pH 7.4), 10 mM MnCl2, 0.15% Triton CF-54, 0.75 mM ATP, 50 μM UDP-GlcNAc (manufactured by Sigma), 4.5 μM (50 nCi) [^14C]UDP-GlcNAc (manufactured by Amersham Biosciences), 10 μM substrate (each of the above-described acceptor substrates), and an appropriate amount (5 to 10 μl) of the purified enzyme protein (enzyme source obtained in Example 4). Enzyme reaction was carried out at 37° C. for several hours up to 16 hours (usually for 16 hours).
After the completion of reaction, the resulting solution was supplemented with 200 μl of 0.1M KCl and lightly centrifuged, and then a supernatant was obtained. After being washed once with 10 ml of methanol, the supernatant was loaded onto Sep-Pak C18 Cartridge (Waters) equilibrated by two-time washing with 10 ml of 0.1 M KCl, and the substrate and a product in the supernatant were adsorbed in the cartridge. After the cartridge was washed twice with 1 ml of pure water for HPLC, the adsorbed substrate and product were eluted with 1 ml of methanol. Following the mixing with a liquid scintillator (ACSII; manufactured by Amersham Biosciences), the amount of radiation from the product was measured with a scintillation counter.

Assay [3] has as its target T1, G9 polypeptide. The assay can be described thus: Activity measurement with glycoproteins as acceptor substrates (SDS-PAGE, autoradiography, glycopeptidase F digestion). The following applies: 40 μg acceptor glycoprotein, 37° C., FIG. 4. Here is the method:
Enzyme reaction was carried out with glycoproteins as substrates. A reaction solution comprised 20 μl in total of 14 mM HEPES buffer (pH 7.4), 10 mM MnCl2, 0.15% Triton CF-54, 0.75 mM ATP, 50 μM UDP-GlcNAc (manufactured by Sigma), 4.5 μM (50 nCi) [^14C]UDP-GlcNAc (manufactured by Amersham Biosciences), 40 μg of an acceptor substrate, and an appropriate amount (5 to 10 μl) of a purified enzyme protein. A αl-acid glycoprotein (orosomucoid; manufactured by Sigma), ovalbumin (manufactured by Sigma), or ovomucoid (manufactured by Sigma) was used as the above described acceptor substrate. The enzyme purified with the anti-FLAG M1 antibody affinity gel in Example 4 was used as the above-described purified enzyme protein.
Reaction was carried out at 37° C. for several hours up to 16 hours. A portion of a reaction product was subjected to enzyme digestion with glycopeptidase F (GPF; manufactured by TAKARA) according to the instruction. The samples both before and after enzyme digestion were analyzed by 10% SDS-PAGE (see FIG. 4).

Assay [4] has as its target T1, G9 polypeptide. The assay can be described thus: Buffer and pH dependence of G9 enzyme activity. Here is the method: Buffer conditions were investigated using the same reaction solution and reaction time as above but using HEPES (pH 6.75 to 7.4) and sodium cacodylate (pH 6.4 to 7.2) instead of 14 mM HEPES buffer (pH7.4) (see FIG. 2A).
[5] abbreviates: metal ions at 2.5, 10 and 40 mM instead of 10 mM MnCl2, FIG. 2B.

“Also recorded” adds a separate entry of the source. Where two headings read alike, the source gives them in different places.

Turning to `[Cl][Cd][Cl]` [Cd, CdCl2], at G9 polypeptide [1] (setting [5]), the “effect of divalent metal ion on G9 activity (in words)” value (from here on “effect of divalent metal ion”) is given as “slight enhancing effect”.

For the molecule `[Cl-].[Cl-].[Co+2]` [Co ion, CoCl2], the “effect of divalent metal ion” value at G9 polypeptide [1] was “significantly enhanced”.

For the molecule `CC(=O)N[C@H]1[C@@H](Oc2ccc([N+](=O)[O-])cc2)O[C@H](CO)[C@@H](O[C@@H]2O[C@H](CO)[C@H](O)[C@H](O)[C@H]2O)[C@@H]1O` [Galβ1-4GlcNAcα-pNP], on G9 polypeptide [2], the “transferring activity for acceptor substrate (in words)” value is reported as “particularly strong activity; also recorded: highest transferring activity” and the Relative activity is 100%.

As for `OC[C@H]1O[C@@H](O[C@H]2[C@H](O)[C@@H](O)[C@H](OCc3ccccc3)O[C@@H]2CO)[C@H](O)[C@@H](O)[C@H]1O` [Lactoside β-Bz], the “transferring activity for acceptor substrate (in words)” value at G9 polypeptide [2] (listed as Bz-β-lactoside) is “significant activity; also recorded: a certain amount of transferring activity”. On G9 polypeptide [2], this molecule yielded a Relative activity of 27%.

Take `[Cl-].[Cl-].[Mg+2]` [Mg, MgCl2]: the “effect of divalent metal ion” value on G9 polypeptide [1] (setting [5]) was “no enhancing effect is substantially observed”.

Consider `[Cl][Mn][Cl]` [Mn ion, MnCl2], for which, on G9 polypeptide [1] (setting [5]), the “effect of divalent metal ion” value is “particularly remarkably enhanced”.

On to `[Cl][Ni][Cl]` [Ni, NiCl2], for which the “effect of divalent metal ion” value at G9 polypeptide [1] (setting [5]) is “slight enhancing effect”.

Regarding `[Cl-].[Cl-].[Zn+2]` [Zn, ZnCl2], the “effect of divalent metal ion” value at G9 polypeptide [1] (setting [5]) is on record as “no enhancing effect is substantially observed”.

B1: ovalbumin (protein, UniProt P01012 2-386, looked up)
Ovalbumin: GSIGAASMEFCFDVFKELKVHHANENIFYCPIAIMSALAMVYLGAKDSTRTQINKVVRFDKLPGFGDSIEAQCGTSVNVHSSLRDILNQITKPNDVYSFSLASRLYAEERYPILPEYLQCVKELYRGGLEPINFQTAADQARELINSWVESQTNGIIRNVLQPSSVDSQTAMVLVNAIVFKGLWEKAFKDEDTQAMPFRVTEQESKPVQMMYQIGLFRVASMASEKMKILELPFASGTMSMLVLLPDEVSGLEQLESIINFEKLTEWTSSNVMEERKIKVYLPRMKMEEKYNLTSVLMAMGITDVFSSSANLSGISSAESLKISQAVHAAHAEINEAGREVVGSAEAGVDAASVSEEFRADHPFLFCIKHIATNAVLFFGRCVSP
notes: glycoprotein acceptor substrate manufactured by Sigma
Take B1: in the assay with G9 polypeptide [3], the “GlcNAc-transferring activity for glycoprotein acceptor substrate (in words)” value was “relatively weak activity”.

B2: G9 polypeptide: novel human β1,3-N-acetyl-D-glucosaminyltransferase, FLAG peptide-fused, amino acids 26 to 397 of SEQ ID NO: 2 (SEQ ID NO: 16) (protein, listed as Homo sapiens)
chain: TSESRLSKAYPSPRGTPPSPTPANPEPTLPANLSTRLGQTIPLPFAYWNQQQWRLGSLPSGDSTETGGCQAWGAAAATEIPDFASYPKDLRRFLLSAACRSFPQWLPGGGGSQVSSCSDTDVPYLLLAVKSEPGRFAERQAVRETWGSPAPGIRLLFLLGSPVGEAGPDLDSLVAWESRRYSDLLLWDFLDVPFNQTLKDLLLLAWLGRHCPTVSFVLRAQDDAFVHTPALLAHLRALPPASARSLYLGEVFTQAMPLRKPGGPFYVPESFFEGGYPAYASGGGYVIAGRLAPWLLRAAARVAPFPFEDVYTGLCIRALGLVPQAHPGFLTAWPADRTADHCAFRNLLLVRPLGPQASIRLWKQLQDPRLQC
modifications: FLAG peptide
On to B2, for which the “pH of maximum activity” value with G9 polypeptide [4] (HEPES buffer (pH 6.75 to 7.4), FIG. 2A) is on record as ~7.0. The “pH dependence of activity (in words)” value in the assay with G9 polypeptide [4] (sodium cacodylate buffer, pH 6.4 to 7.2, FIG. 2A) is “rises with an increase in pH”.
